In brackets after ≈: the same amount, converted by molar mass. Values belong to the compound of their own block, whether it stands above or below them.
Columns and labels:
Escherichia coli [1] = assay: Compound was evaluated for the antibacterial activity against Escherichia coli with strain NIHJ (beta-Lactamase-negative (LAC-); assay type: functional
Escherichia coli [2] = assay: Compound was evaluated for the antibacterial activity against Escherichia coli (RTEM+ organism).; assay type: functional
Escherichia coli [3] = assay: Compound was evaluated for the antibacterial activity against Escherichia coli with strain NIHJ (beta-Lactamase-negative (LAC-)); assay type: functional
Escherichia coli [4] = assay: Compound was evaluated for the relative Vmax against Escherichia coli with strain 609 (beta-Lactamase-positive (LAC+)); assay type: ADME, organism-based
Escherichia coli [5] = assay: Compound was evaluated for the antibacterial activity against Escherichia coli with strain 609 (beta-Lactamase-positive (LAC+)); assay type: functional
Escherichia coli [6] = assay: Compound was evaluated for the antibacterial activity against Escherichia coli with strain beta-Lactamase-negative (LAC-); assay type: functional
Escherichia coli [7] = assay: Compound was evaluated for the antibacterial activity against Escherichia coli (RTEM+ organism); assay type: functional
[8] = Relative Vmax was reported; assay type: ADME
Staphylococcus aureus [9] = assay: Relative hydrolysis rate (RHR) was evaluated against Staphylococcus aureus with the strain FS108; assay type: ADME, organism-based
Staphylococcus aureus [10] = assay: Compound was evaluated for the antibacterial activity against Staphylococcus aureus with the strains beta-Lactamase-positive (LAC+)/ beta-Lactamase-negative (LAC-); 64/0.03; assay type: functional
Staphylococcus aureus [11] = assay: Compound was evaluated for the antibacterial activity against Staphylococcus aureus with the strain 209P; assay type: functional
Escherichia coli [12] = assay: Compound was evaluated for the antibacterial activity against Escherichia coli (RTEM+organism) at 10E6 colony forming units; assay type: functional
[13] = Relative hydrolysis rate (RHR) was evaluated against RTEM enzyme; assay type: ADME
Providencia rettgeri = assay: Compound was evaluated for the antibacterial activity against Providencia rettgeri with the strains beta-Lactamase-positive (LAC+); assay type: functional
Enterobacter cloacae [14] = assay: Compound was evaluated for the antibacterial activity against Enterobacter cloacae with the strains beta-Lactamase-positive (LAC+); assay type: functional
[15] = Compound was evaluated for the relative Vmax against RTEM enzyme; assay type: ADME
[16] = Relative hydrolysis rate (RHR) was evaluated against K1 enzyme; assay type: ADME
Escherichia coli [17] = assay: Compound was evaluated for the relative Vmax against Escherichia coli with strain 609 (beta-Lactamase-positive (LAC+); assay type: ADME, organism-based; conditions: in vivo
Enterobacter cloacae [18] = assay: Compound was evaluated for the antibacterial activity against Enterobacter cloacae with strain 233 (beta-Lactamase-positive (LAC+)); assay type: functional
Escherichia coli [19] = assay: Compound was evaluated for the antibacterial activity against Escherichia coli with strain JC-S (beta-Lactamase-negative (LAC-)); assay type: functional
Klebsiella aerogenes [20] = assay: Compound was evaluated for the antibacterial activity against Klebsiella aerogenes with strain K1+ at 10e4/10e6 cfu; 0.2/0.8; assay type: functional
Escherichia coli [21] = assay: Compound was evaluated for the antibacterial activity against Escherichia coli (RTEM-organism) at 10e4/10e6 cfu; 0.2/0.4; assay type: functional
Escherichia coli [22] = assay: Compound was evaluated for the antibacterial activity against Escherichia coli (RTEM+organism) at 10e4/10e6 cfu; 0.1/0.4; assay type: functional
Klebsiella aerogenes [23] = assay: Compound was evaluated for the antibacterial activity against Klebsiella aerogenes with strain K1- at 10e4/10e6 cfu; 0.1/0.4; assay type: functional
Escherichia coli [24] = assay: Percentage zonal reduction was evaluated against Escherichia coli; assay type: functional
Staphylococcus aureus [25] = assay: Percentage zonal reduction was evaluated against Staphylococcus aureus; assay type: functional

- MIC (Escherichia coli [1]): > 200 µg/mL
- MIC (Escherichia coli [2]): 200 µg/mL (≈ 400 µM)
SMILES: CCCO[C@@]1(NC(=O)CSCC#N)C(=O)N2C(C(=O)O)=C(CSc3nnnn3C)CSC21 (some centres undefined)

- MIC (Escherichia coli [1]): 50 µg/mL (≈ 103 µM)
- MIC (Escherichia coli [2]): 50 µg/mL (≈ 103 µM)
SMILES: CCO[C@@]1(NC(=O)CSCC#N)C(=O)N2C(C(=O)O)=C(CSc3nnnn3C)CSC21 (some centres undefined)

- MIC (Escherichia coli [3]): 12.5 µg/mL (≈ 43 µM)
- RVmax (Escherichia coli [4]): < 0.1
- MIC (Escherichia coli [5]): 25 µg/mL (≈ 86.1 µM)
SMILES: CC(O)[C@@H]1C(=O)N2C(C(=O)O)=C(SCCN)SC12 (some centres undefined)

- MIC (Escherichia coli [6]): 0.2 µg/mL
- MIC (Escherichia coli [7]): 1.6 µg/mL
SMILES: CC(=O)NCCSC1=C(C(=O)O)N2C(=O)[C@@H](C(C)OS(=O)(=O)[O-])C2C1.[K+] (some centres undefined)

SMILES: CC1(C)S[C@@H]2[C@H](NC(=O)Cc3ccccc3)C(=O)N2[C@H]1C(=O)O [PENICILLIN G]
- RVmax [8]: 1
- RHR (Staphylococcus aureus [9]): 100
- MIC (Staphylococcus aureus [10]): 64 µg/mL (≈ 191 µM)
- MIC (Staphylococcus aureus [11]): 0.065 µg/mL (≈ 0.194 µM)

- MIC (Escherichia coli [12]): 0.1 µg/mL (≈ 0.212 µM)
- RHR [13]: 0
SMILES: CO/N=C(\C(=O)N[C@@H]1C(=O)N2C(C(=O)O)=C(COC(C)=O)C[S@+]([O-])C12)c1csc(N)n1 (some centres undefined)

- MIC (Escherichia coli [6]): 0.8 µg/mL (≈ 2.54 µM)
- MIC (Escherichia coli [7]): 0.8 µg/mL (≈ 2.54 µM)
SMILES: CC(=O)NCCSC1=C(C(=O)O)N2C(=O)[C@H]([C@H](C)O)C2C1 (some centres undefined)

- MIC (Providencia rettgeri): 12.5 µg/mL
- MIC (Enterobacter cloacae [14]): 25 µg/mL
SMILES: Cn1nnnc1SCC1=C(C(=O)[O-])N2C(=O)[C@@H](NC(=O)[C@H](NC(N)=O)c3ccco3)C2SC1.[Na+] (some centres undefined)

- MIC (Escherichia coli [6]): 6.2 µg/mL (≈ 19.7 µM)
- MIC (Escherichia coli [7]): 6.2 µg/mL (≈ 19.7 µM)
SMILES: CC(=O)NCCSC1=C(C(=O)O)N2C(=O)[C@H]([C@@H](C)O)C2C1 (some centres undefined)

- RVmax [15]: 100
- RHR [13]: 100
- RHR [16]: 100
- RVmax (Escherichia coli [17]): 100
SMILES: O=C(Cc1cccs1)N[C@@H]1C(=O)N2C(C(=O)[O-])=C(C[n+]3ccccc3)CS[C@H]12 [CEPHALORIDINE]

- RHR [13]: 100
- RHR [16]: 100
SMILES: CO/N=C(\C(=O)N[C@@H]1C(=O)N2C(C(=O)O)=C(COC(C)=O)CS[C@H]12)c1csc(N)n1 [CEFOTAXIME]

- RHR [13]: 19
- MIC (Escherichia coli [3]): 0.2 µg/mL (≈ 0.408 µM)
SMILES: Cn1nnnc1SCC1=C(C(=O)O)N2C(=O)C(NC(=O)C(C(=O)O)c3ccc(O)cc3)C2OC1 (centres undefined)

- MIC (Escherichia coli [3]): 3.1 µg/mL (≈ 11.2 µM)
- RVmax (Escherichia coli [4]): 10
- MIC (Escherichia coli [5]): 25 µg/mL (≈ 90.5 µM)
SMILES: NCCSC1=C(C(=O)O)N2C(=O)[C@@H](CO)C2S1 (some centres undefined)

- RHR (Staphylococcus aureus [9]): 2.2
- MIC (Staphylococcus aureus [11]): 1.6 µg/mL (≈ 4.78 µM)
SMILES: CC1(C)SC2[C@@H](NC(=O)Cc3ccccc3)C(=O)N2C1C(=O)O (some centres undefined)

- MIC (Enterobacter cloacae [18]): 0.2 µg/mL (≈ 0.384 µM)
- MIC (Escherichia coli [2]): 0.4 µg/mL (≈ 0.769 µM)
- MIC (Escherichia coli [19]): 0.2 µg/mL (≈ 0.384 µM)
SMILES: CO[C@@]1(NC(=O)C(C(=O)O)c2ccc(O)cc2)C(=O)N2C(C(=O)O)=C(CSc3nnnn3C)COC21 (some centres undefined)

- MIC (Escherichia coli [1]): 0.8 µg/mL
- MIC (Escherichia coli [2]): 0.8 µg/mL
SMILES: CO[C@@]1(NC(=O)CSCC#N)C(=O)N2C(C(=O)[O-])=C(CSc3nnnn3C)CS[C@@H]21.[Na+] [CEFMETAZOLE SODIUM]

- MIC (Escherichia coli [6]): 0.2 µg/mL (≈ 0.636 µM)
- MIC (Escherichia coli [7]): 25 µg/mL (≈ 79.5 µM)
SMILES: CC(=O)NCCSC1=C(C(=O)O)N2C(=O)[C@@H](C(C)O)C2C1 (some centres undefined)

- MIC (Escherichia coli [3]): 0.8 µg/mL (≈ 3.25 µM)
- RVmax (Escherichia coli [4]): 75
- MIC (Escherichia coli [5]): 50 µg/mL (≈ 203 µM)
SMILES: NCCSC1=C(C(=O)O)N2C(=O)CC2S1 (centres undefined)

- MIC (Klebsiella aerogenes [20]): 0.2 µg/mL
- MIC (Escherichia coli [21]): 0.2 µg/mL
- MIC (Escherichia coli [22]): 0.1 µg/mL
- MIC (Klebsiella aerogenes [23]): 0.1 µg/mL
SMILES: CC[C@@H]1[C@H](NC(=O)/C(=N/OC)c2csc(N)n2)C(=O)N1S(=O)(=O)[O-].[K+]

- MIC (Escherichia coli [1]): 0.8 µg/mL (≈ 1.81 µM)
- MIC (Escherichia coli [2]): 12.5 µg/mL (≈ 28.3 µM)
SMILES: Cn1nnnc1SCC1=C(C(=O)O)N2C(=O)[C@@H](NC(=O)CSCC#N)C2SC1 (some centres undefined)

- RHR [13]: 2111
- RHR [16]: 101
SMILES: CC(=O)OCC1=C(C(=O)O)N2C(=O)[C@@H](NC(=O)/C(=N\OCC(=O)O)c3csc(N)n3)C2SC1 (some centres undefined)

SMILES: CC1=C(C(=O)O)N2C(=O)[C@@H](NC(=O)[C@H](N)c3ccccc3)[C@H]2SC1 [CEPHALEXIN ANHYDROUS]
- Zone reduction (Escherichia coli [24]): 27%
- Zone reduction (Staphylococcus aureus [25]): 48%
